The test concerns the target Recombinant Human ENPP-1 Protein (Homo sapiens (Human), UniProt P22413). The experiment in a line: ENPP1 Inhibition Assay. The class given is biochemical. The conditions noted are these: substrate thymidine 5′-monophosphate p-nitrophenol ester, absorbance at 405 nm. The protocol: 1. ENPP1 Inhibition Assay
Materials: • Assay Buffer: 1 mM CaCl2, 0.2 mM ZnCl2, 50 mM Tris, pH 9.0 • Substrate: 8 mM Thymidine 5′-monophosphate p-nitrophenol ester sodium salt (Sigma Cat # T4510) • Enzyme: 5 ng/μL Recombinant Human ENPP-1 Protein (R&D Cat #6136-EN-010) DMSO • 96-well clear assay plates
An eight point serial dilution of drugs was prepared in 10× in assay buffer with the final assay concentrations starting at 10 μM, 3 μM, 1 μM, 0.3 μM . . . 0 μM. A dilution of DMSO was included as a control. The assay plate was set up as follows with each well in duplicate: 81 μL assay buffer+10 μL ENPP1 inhibitor or DMSO+5 μL Substrate+4 μL Enzyme. Both the enzyme and substrate were added to opposite sides of the well to ensure that there was no interaction until all wells had both components. The plate was then centrifuged gently for 10 seconds, followed by an incubation at 37° C. for 45 minutes. The reaction was quantified by measuring absorbance at 405 nm using the Envision.
IC50 values are determined using GraphPad Prism 5 software. The data were entered as an X-Y plot into the software as percent inhibition for each concentration of the drug. The concentration values of the drug were log transformed and the nonlinear regression was carried out using the “sigmoidal dose-response (variable slope)” option within the GraphPad software to model the data and calculate IC50 values. The IC50 values reported are the concentration of drug at which 50% inhibition was reached.

Molecules are shown by their SMILES.

Chain of Recombinant Human ENPP-1 Protein (P22413 whole entry): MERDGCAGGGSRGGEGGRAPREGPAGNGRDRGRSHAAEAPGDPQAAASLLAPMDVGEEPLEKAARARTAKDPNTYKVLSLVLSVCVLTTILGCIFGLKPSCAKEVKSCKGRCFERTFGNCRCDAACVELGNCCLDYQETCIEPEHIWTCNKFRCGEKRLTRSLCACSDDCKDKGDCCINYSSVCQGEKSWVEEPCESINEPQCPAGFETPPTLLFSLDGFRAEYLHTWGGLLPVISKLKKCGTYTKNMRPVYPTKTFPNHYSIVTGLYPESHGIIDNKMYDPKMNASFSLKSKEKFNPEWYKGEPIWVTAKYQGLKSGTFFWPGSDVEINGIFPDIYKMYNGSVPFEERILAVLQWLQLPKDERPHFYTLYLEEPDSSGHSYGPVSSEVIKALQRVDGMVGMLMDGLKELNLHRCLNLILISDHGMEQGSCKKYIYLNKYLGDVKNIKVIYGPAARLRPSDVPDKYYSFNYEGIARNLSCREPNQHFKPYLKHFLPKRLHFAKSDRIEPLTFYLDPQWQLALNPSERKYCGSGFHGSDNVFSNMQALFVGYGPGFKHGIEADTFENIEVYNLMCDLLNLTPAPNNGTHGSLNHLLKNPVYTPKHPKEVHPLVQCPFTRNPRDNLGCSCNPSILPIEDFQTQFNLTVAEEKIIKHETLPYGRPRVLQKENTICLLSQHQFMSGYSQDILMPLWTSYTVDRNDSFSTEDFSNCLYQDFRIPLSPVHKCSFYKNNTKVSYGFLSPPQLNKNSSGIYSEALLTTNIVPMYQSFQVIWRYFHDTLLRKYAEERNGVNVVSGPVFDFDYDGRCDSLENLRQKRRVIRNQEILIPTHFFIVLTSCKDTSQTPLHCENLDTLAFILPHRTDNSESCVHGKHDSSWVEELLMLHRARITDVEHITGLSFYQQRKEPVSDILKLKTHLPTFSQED

Regarding `COc1nc(NC(=O)CSc2nc3c(C)c(C#N)ncc3[nH]2)ccc1O` [Compound 96, 2-((6-cyano-7-methyl-3H-imidazo[4,5-c]pyridin-2-yl)thio)-N-(5-hydroxy-6-methoxypyridin-2-yl)acetamide], the IC50 turned out to be 2.06 µM.

For `COc1ccc(NC(=O)CSc2nc3cnc(Cl)cc3[nH]2)cc1F` [Compound 27, 2-((6-Chloro-1H-imidazo[4,5-c]pyridin-2-yl)thio)-N-(3-fluoro-4-methoxyphenyl)acetamide], the IC50 was found to be 0.4 µM.

`COc1ccc(NC(=O)CSc2nc3c(C)cncc3[nH]2)cc1O` [Compound 16, N-(3-hydroxy-4-methoxyphenyl)-2-((7-methyl-1H-imidazo[4,5-c]pyridin-2-yl)thio)acetamide]: the concentration for half-maximal inhibition (IC50) came to 2.29 µM.

`COc1ccc(NC(=O)CSc2nc3cc(C#N)ncc3[nH]2)cc1O` [Compound 67, 2-((6-Cyano-3H-imidazo[4,5-c]pyridin-2-yl)thio)-N-(3-hydroxy-4-methoxyphenyl)acetamide]: the IC50 stood at 0.179 µM.

Turning to `COc1ccc(NC(=O)CSc2nc3cc(Cl)ncc3[nH]2)cc1OCC(F)(F)F` [Compound 89], the IC50 came out at 11.3 µM.

In the case of `COc1ccc(NC(=O)CSc2nc3cnc(Cl)c(C)c3[nH]2)cc1OC` [Compound 52, 2-((6-Chloro-7-methyl-1H-imidazo[4,5-c]pyridin-2-yl)thio)-N-(3,4-dimethoxyphenyl)acetamide], the IC50 was found to be 1.14 µM.

Take `COc1ccc(NC(=O)CSc2nc3cnc(Cl)c(C)c3[nH]2)cc1O` [Compound 49, 2-((6-Chloro-7-methyl-1H-imidazo[4,5-c]pyridin-2-yl)thio)-N-(3-hydroxy-4-methoxyphenyl)acetamide]: the IC50 is 0.667 µM.

Take `O=C(CSc1nc2cc(C(F)(F)F)ncc2[nH]1)Nc1ccc(OC(F)(F)F)c(O)c1` [Compound 61, N-(3-Hydroxy-4-(trifluoromethoxy)phenyl)-2-((6-(trifluoromethyl)-3H-imidazo[4,5-c]pyridin-2-yl)thio)acetamide]: the half-maximal inhibitory concentration (IC50) amounted to 22.6 µM.

As to `COc1cc(NC(=O)CSc2nc3c(C)cncc3[nH]2)ccc1O` [Compound 18, N-(4-hydroxy-3-methoxyphenyl)-2-((7-methyl-3H-imidazo[4,5-c]pyridin-2-yl)thio)acetamide], the IC50 worked out at 8.37 µM.

Consider `O=C(CSc1nc2cc(Cl)ncc2[nH]1)Nc1nc2ccccc2s1` [Compound 62, N-(Benzo[d]thiazol-2-yl)-2-((6-chloro-3H-imidazo[4,5-c]pyridin-2-yl)thio)acetamide], for which the IC50 worked out at 10.9 µM.

For the compound `COc1ccc(NC(=O)CSc2nc3c(C)cncc3[nH]2)cc1OC` [Compound 9, N-(3,4-dimethoxyphenyl)-2-((7-methyl-1H-imidazo[4,5-c]pyridin-2-yl)thio)acetamide], the IC50 is 4.46 µM.

Consider `COc1cc2nc(NC(=O)CSc3nc4cc(Cl)ncc4[nH]3)sc2cc1OC` [Compound 54, 2-((6-Chloro-3H-imidazo[4,5-c]pyridin-2-yl)thio)-N-(5,6-dimethoxybenzo[d]thiazol-2-yl)acetamide], for which the IC50 came out at 5.73 µM.

On to `COc1ccc(NC(=O)C(C)Sc2nc3cnc(C(F)(F)F)cc3[nH]2)cc1O` (centres unmarked) [Compound 42, N-(3-Hydroxy-4-methoxyphenyl)-2-((6-(trifluoromethyl)-3H-imidazo[4,5-c]pyridin-2-yl)thio)propanamide], for which the IC50 was 11.3 µM.

Take `COc1ccc(NC(=O)C(C)Sc2nc3cnc(Cl)cc3[nH]2)cc1OC` (centres unmarked) [Compound 14, 2-((6-Chloro-1H-imidazo[4,5-c]pyridin-2-yl)thio)-N-(3,4-dimethoxyphenyl)propanamide]: the IC50 is 3.52 µM.

For the compound `COc1ccc(NC(=O)CSc2nc3cc(Cl)ncc3[nH]2)nc1OC` [Compound 87, 2-((6-chloro-1H-imidazo[4,5-c]pyridin-2-yl)thio)-N-(5,6-dimethoxypyridin-2-yl)acetamide], the IC50 stood at 1.98 µM.

`COc1cc(NC(=O)CSc2nc3cc(Cl)ncc3[nH]2)ccc1OC(F)F` [Compound 29, 2-((6-Chloro-1H-imidazo[4,5-c]pyridin-2-yl)thio)-N-(4-(difluoromethoxy)-3-methoxyphenyl)acetamide]: the IC50 was found to be 1.16 µM.

`COc1cnc(NC(=O)CSc2nc3cc(Cl)ncc3[nH]2)cc1OC` [Compound 85, 2-((6-chloro-1H-imidazo[4,5-c]pyridin-2-yl)thio)-N-(4,5-dimethoxypyridin-2-yl)acetamide]: the IC50 was 0.266 µM.

Regarding `COc1ccc(NC(=O)CSc2nc3c(C)c(C#N)ncc3[nH]2)cc1F` [Compound 93, 2-((6-Cyano-7-methyl-3H-imidazo[4,5-c]pyridin-2-yl)thio)-N-(3-fluoro-4-methoxyphenyl)acetamide], the IC50 turned out to be 0.224 µM.

On to `COc1ccc(NC(=O)CSc2nc3cnc(Cl)c(C)c3[nH]2)cc1F` [Compound 50, 2-((6-Chloro-7-methyl-1H-imidazo[4,5-c]pyridin-2-yl)thio)-N-(3-fluoro-4-methoxyphenyl)acetamide], for which the IC50 is 5.63 µM.

For the compound `Cc1cncc2[nH]c(SCC(=O)Nc3ccc4c(c3)OCO4)nc12` [Compound 10, N-(benzo[d][1,3]dioxol-5-yl)-2-((7-methyl-1H-imidazo[4,5-c]pyridin-2-yl)thio)acetamide], the IC50 is 50 µM.

As to `COc1ccc(NC(=O)CSc2nc3cc(Cl)ncc3[nH]2)cc1[N+](=O)[O-]` [Compound 83, 2-((6-Chloro-3H-imidazo[4,5-c]pyridin-2-yl)thio)-N-(4-methoxy-3-nitrophenyl)acetamide], the IC50 worked out at 4.55 µM.

Consider `COc1c(F)cc(NC(=O)CSc2nc3cnc(C(F)(F)F)cc3[nH]2)cc1F` [Compound 44, N-(3,5-Difluoro-4-methoxyphenyl)-2-((6-(trifluoromethyl)-3H-imidazo[4,5-c]pyridin-2-yl)thio)acetamide], for which the IC50 amounted to 10.2 µM.

On to `COc1ccc(NC(=O)CSc2nc3cc(Cl)ncc3[nH]2)cc1N` [Compound 82, N-(3-Amino-4-methoxyphenyl)-2-((6-chloro-3H-imidazo[4,5-c]pyridin-2-yl)thio)acetamide], for which the IC50 is 6.02 µM.

As for `O=C(CSc1nc2cc(Cl)ncc2[nH]1)Nc1ccc2c(c1)OCO2` [Compound 7, N-(benzo[d][1,3]dioxol-5-yl)-2-((6-chloro-1H-imidazo[4,5-c]pyridin-2-yl)thio)acetamide], the IC50 is over 50 µM.

Take `COc1ccc(NC(=O)CSc2nc3c(C)c(C#N)ncc3[nH]2)cc1OC` [Compound 77, 2-((6-Cyano-7-methyl-3H-imidazo[4,5-c]pyridin-2-yl)thio)-N-(3,4-dimethoxyphenyl)acetamide]: the IC50 stood at 0.265 µM.

On to `N#Cc1cc2nc(SCC(=O)Nc3ccc(F)c(O)c3)[nH]c2cn1` [Compound 69, 2-((6-Cyano-3H-imidazo[4,5-c]pyridin-2-yl)thio)-N-(4-fluoro-3-hydroxyphenyl)acetamide], for which the IC50 came to 0.216 µM.

Consider `Cc1c(C#N)ncc2[nH]c(SCC(=O)Nc3ccc(F)c(O)c3)nc12` [Compound 79, 2-((6-Cyano-7-methyl-3H-imidazo[4,5-c]pyridin-2-yl)thio)-N-(4-fluoro-3-hydroxyphenyl)acetamide], for which the IC50 was 6.52 µM.

With `Cc1c(Cl)ncc2nc(SCC(=O)Nc3ccc(F)c(O)c3)[nH]c12` [Compound 51, 2-((6-Chloro-7-methyl-1H-imidazo[4,5-c]pyridin-2-yl)thio)-N-(4-fluoro-3-hydroxyphenyl)acetamide], the 50% inhibitory concentration (IC50) amounted to 1.27 µM.

As to `O=C(CSc1nc2cc(Cl)ncc2[nH]1)Nc1ccc(OC(F)F)cc1` [Compound 40, 2-((6-Chloro-3H-imidazo[4,5-c]pyridin-2-yl)thio)-N-(4-(difluoromethoxy)phenyl)acetamide], the IC50 amounted to 33.6 µM.

Regarding `COc1ccc(NC(=O)CSc2nc3cc(Cl)ncc3[nH]2)cn1` [Compound 72, 2-((6-chloro-3H-imidazo[4,5-c]pyridin-2-yl)thio)-N-(6-methoxypyridin-3-yl)acetamide], the IC50 was 3.29 µM.

In the case of `COc1ccc(NC(=O)CS(=O)(=O)c2nc3cnc(Cl)cc3[nH]2)cc1F` [Compound 70, 2-((6-chloro-1H-imidazo[4,5-c]pyridin-2-yl)sulfonyl)-N-(3-fluoro-4-methoxyphenyl)acetamide], the concentration for half-maximal inhibition (IC50) was determined as 30.2 µM.

With `COc1ccc(NC(=O)CSc2nc3cc(Cl)ncc3[nH]2)cc1OC` [Compound 3, 2-((6-Chloro-3H-imidazo[4,5-c]pyridin-2-yl)thio)-N-(3,4-dimethoxyphenyl)acetamide], the IC50 stood at 0.58 µM.

As for `O=C(CSc1nc2cnc(Cl)cc2[nH]1)Nc1ccc(O)cc1` [Compound 33, 2-((6-chloro-1H-imidazo[4,5-c]pyridin-2-yl)thio)-N-(4-hydroxyphenyl)acetamide], the IC50 is 7.92 µM.

`O=C(CSc1nc2cnc(Cl)cc2[nH]1)Nc1cccc(O)c1` [Compound 25, 2-((6-Chloro-1H-imidazo[4,5-c]pyridin-2-yl)thio)-N-(3-hydroxyphenyl)acetamide]: the IC50 came out at 7.93 µM.

With `COc1ccc(NC(=O)CSc2nc3cnc(Cl)cc3[nH]2)cc1OC(F)(F)F` [Compound 35, 2-((6-chloro-1H-imidazo[4,5-c]pyridin-2-yl)thio)-N-(4-methoxy-3-(trifluoromethoxy)phenyl)acetamide], the IC50 is 40.7 µM.

The record behind these values is US10689376B2, “Substituted-3H-imidazo [4,5-c] pyridine and 1H-pyrrolo[2,3-c]pyridine series of novel ectonucleotide pyrophosphatase/phosphodiesterase-1 (ENPP1) and stimulator for interferon genes (STING) modulators as cancer immunotherapeutics” (Stingray Therapeutics, Inc., priority 2017, dated 2020).
